Structures are written as SMILES. Entries after “also recorded” stand apart in the source; their conditions may differ.

What all share (format): cell-based
One test deals with T1, GAL4-Nur77 (Homo sapiens, UniProt P22736).
T1 construct: expressed in transfected cells; host or cells: Panc-28
The experiment in a line: Nur77 antagonist assay: cotreatment with Nur77 agonists, GAL4-Nur77/pGAL4 in Panc-28 cells. To be noted: Panc-28, cotreatment with Nur77 agonists; 10 or 20 μM (FIG. 2C-2E). The text has this:
(§1) Transfection assays were essentially carried out as previously described using Lipofectamine Plus reagent (Invitrogen, Carlsbad, Calif.) and luciferase activities were normalized to β-galactosidase activity. […] Results are expressed as means±SE for at least three replicate determinations for each treatment group.
(§2) (FIG. 2A). […] The structural specificity of Nur77 antagonists was further investigated using meta-hydroxy (DIM-C-mPhOH) and ortho-hydroxy (DIM-C-oPhOH) analogs. […] Thus, activation of Nur77 by C-DIMs was E/F domain-dependent and Nur77 activation was inhibited by DIM-C-pPhOH; moreover, both activation and inhibition of Nur77-mediated transactivation was dependent on the structure of the C-DIM compounds.

A further test deals with Panc-28 cells. The experiment in a line: Cell survival of Panc-28 cells.
A further test addresses Nur77 (Homo sapiens, UniProt P22736). The experiment in a line: Nur response element (NurRE) luciferase transactivation in Panc-28 cells. Details: endogenous in cells; host or cells: Panc-28. The settings on record: 10 or 20 μM (FIG. 1C).
Test [1] deals with T2, GAL4-Nur77 (full length) chimera (Homo sapiens, UniProt P22736).
T2 construct: Panc-28 cells transfected with a GAL4-Nur77 (full length) chimera; expressed in transfected cells; host or cells: Panc-28
T2 sequence (P22736 whole entry, change not shown, the tested form may be a part): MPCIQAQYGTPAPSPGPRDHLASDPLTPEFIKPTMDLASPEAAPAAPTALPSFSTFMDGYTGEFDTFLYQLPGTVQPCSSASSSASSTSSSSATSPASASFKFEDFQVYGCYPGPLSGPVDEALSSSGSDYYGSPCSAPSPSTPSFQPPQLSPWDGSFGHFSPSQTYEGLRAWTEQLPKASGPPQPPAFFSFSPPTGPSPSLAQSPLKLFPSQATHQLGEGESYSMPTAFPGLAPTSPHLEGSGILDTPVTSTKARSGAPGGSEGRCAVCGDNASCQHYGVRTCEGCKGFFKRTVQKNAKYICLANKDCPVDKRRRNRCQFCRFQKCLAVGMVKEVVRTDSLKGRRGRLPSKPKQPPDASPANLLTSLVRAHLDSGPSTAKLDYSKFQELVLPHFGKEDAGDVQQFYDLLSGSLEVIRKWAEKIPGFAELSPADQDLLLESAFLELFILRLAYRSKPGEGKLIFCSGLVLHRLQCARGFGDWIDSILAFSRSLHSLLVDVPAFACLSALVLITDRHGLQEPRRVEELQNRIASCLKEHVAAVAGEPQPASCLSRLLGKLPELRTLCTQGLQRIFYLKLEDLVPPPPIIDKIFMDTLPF
In words: GAL4-Nur77 (full length)/pGAL4 luciferase transactivation in Panc-28 cells. To be noted: Panc-28 cells, 10 or 20 μM (FIG. 1B).
Source text: Structure-dependent activation of Nur77 by a series of eleven C-substituted DIMs was investigated in Panc-28 cells transfected with a GAL4-Nur77 (full length) chimera and a reporter construct containing five GAL4 response elements linked to a luciferase reporter gene (pGAL4).
as §1

Another test deals with T3, GAL4-Nur77(E/F) (Homo sapiens, UniProt P22736).
T3 construct: a chimeric GAL4-Nur77(E/F) construct containing only the E/F domain of Nur77; expressed in transfected cells; host or cells: Panc-28
T3 sequence (P22736 360-595 limits assumed): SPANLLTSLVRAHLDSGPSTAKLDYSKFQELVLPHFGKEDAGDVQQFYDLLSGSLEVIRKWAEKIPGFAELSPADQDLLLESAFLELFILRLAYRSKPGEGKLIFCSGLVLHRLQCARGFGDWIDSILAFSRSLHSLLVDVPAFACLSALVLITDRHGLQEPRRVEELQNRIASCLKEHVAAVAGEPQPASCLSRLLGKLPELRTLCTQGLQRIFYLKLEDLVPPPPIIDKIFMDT
The experiment in a line: GAL4-Nur77(E/F)/pGAL4 transactivation in Panc-28 cells. The settings on record: 5-15 μM (FIG. 2A).
Source text: as §1, §2

The subject of the next test is TRAIL. The experiment in a line: TRAIL protein expression in Panc-28 cells (Western blot). The text has this:
In thymocytes, there is evidence that Nur77-induced apoptosis is linked to transcriptional activation (uang, et al., 1999), and microarray studies in thymocytes undergoing Nur77-dependent apoptosis identified several apoptosis-related genes including fasL and TRAIL (Rajpal, et al., 2003). […] (FIG. 6B). Since TRAIL activates the extrinsic apoptosis pathway and activation of caspase 8, the effect of a caspase 8 inhibitor (Z-IETD-FMK) and the pan-caspase inhibitor (Z-VAD-FMK) was also investigated on induction of PARP cleavage by Nur77 agonists (FIG. 6C).

A further test has as its system PARP cleavage. In words: PARP cleavage in Panc-28 cells (Western blot).
Where [2] appears, read: Panc-28, cotreatment with DIM-C-pPhOH3 or DIM-C-Ph (FIG. 6E).

Sequence of Nur77 (P22736 whole entry, the tested form may be a part): as the sequence (P22736 whole entry, change not shown, the tested form may be a part) above
T1 sequence (P22736 whole entry, the tested form may be a part): as the sequence (P22736 whole entry, change not shown, the tested form may be a part) above
Description for PARP cleavage: The different cancer cell lines were cultured under standardized conditions. Panc-28 cells were grown in DMEM:Ham's F-12 media containing 2.5% charcoal stripped fetal bovine serum, and cells were treated with DMSO and different concentrations of test compounds as indicated. For longer term cell survival studies, the media was changed every second day, and values were presented for a 4 day experiment. For all other assays, cytosolic, nuclear fractions, or whole cell lysates were obtained at various time points, analyzed by Western blot analysis, and bands were quantitated as previously described (Qin, et al., 2004; Abdelrahim, et al., 2002). Immunocytochemical analysis was determined using Nur77 antibodies as previously reported (Abdelrahim, et al., 2002).

`Oc1ccc(C(c2c[nH]c3ccccc23)c2c[nH]c3ccccc23)cc1` [DIM-C-pPhOH]: on GAL4-Nur77, the “Nur77 antagonist activity (inhibition of agonist-induced transactivation)” value was “antagonizes activation of Nur77 by all three C-DIM compounds”. For the same compound, the “effect on cell survival” value in the test on Panc-28 cells (Panc-28 (FIG. 5A)) is “did not affect cell survival”. For the same compound, the “cell proliferation at longer time points” value with Panc-28 cells (Panc-28, 4 and 6 days) is reported as “slightly inhibited cell proliferation”. For the same compound, in the test on Panc-28 cells (Panc-28, concentrations as high as 20 μM), the “induction of cell death” value is given as “induction of cell death was not observed”. The “activation of NurRE construct” value on Nur77 was “inactive”. In test [1], the “luciferase activity, GAL4-Nur77 (full length)/pGAL4” value was “inactive; also recorded: did not induce activity”. The “luciferase activity, GAL4-Nur77(E/F)/pGAL4” value at GAL4-Nur77(E/F) is recorded as “no response was observed”. Also, the “inhibition of TRAIL protein expression induced by Nur77 agonists” value in the test with TRAIL (setting [2]) was “inhibited induction”. Besides, in the test on TRAIL (Panc-28 cells (FIG. 6A)), the TRAIL protein expression entry is on record as “did not induce TRAIL”. Also, the “inhibition of PARP cleavage induced by Nur77 agonists” value in the test on PARP cleavage (setting [2]) is on record as “inhibited induction”. For the same compound, the “cleavage of PARP” value in the test on PARP cleavage (Panc-28 cells (FIG. 5B)) was “did not induce this response”.

These data come from patent US20060084694A1, “Ligand-dependant activation of Nur77 and uses thereof” (priority 2004, published 2006).
